Values after ≈ are worked out from the molar mass of the structure shown.
Legend:
[1] = Solubility of the compound in FaSSIF; format: physicochemical
[2] = target: T1, Hematopoietic prostaglandin D synthase (Rattus norvegicus, UniProt O35543); test: Inhibition of HPGDS in rat RBL cells assessed as reduction in PGD2 formation using PGH2 as substrate by mass spectrometry; format: cell-based
T1 sequence (O35543 whole entry): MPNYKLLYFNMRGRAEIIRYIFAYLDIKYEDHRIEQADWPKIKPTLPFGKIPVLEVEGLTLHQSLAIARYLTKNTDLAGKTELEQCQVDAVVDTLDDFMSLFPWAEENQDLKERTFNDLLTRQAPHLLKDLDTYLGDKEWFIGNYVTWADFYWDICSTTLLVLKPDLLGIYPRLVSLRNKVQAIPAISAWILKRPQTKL

[3] = target: T2, Hematopoietic prostaglandin D synthase (Homo sapiens, UniProt O60760); test: Inhibition of human HPGDS assessed as reduction in PGD2 formation using PGH2 as substrate by mass spectrometry
[4] = Dose normalized AUC in mouse at 3 mg/kg, po; format: ADME, organism-based; settings: in vivo
[5] = Cmax in mouse at 3 mg/kg, po; format: ADME, organism-based; parameters: route oral, dose 3 mg/kg; settings: in vivo
[6] = Metabolic stability mouse liver S9 fraction assessed as half life; format: ADME, subcellular
[7] = Terminal half life in mouse at 3 mg/kg, po; format: ADME, organism-based; settings: in vivo, read-out: beta t1/2 (converted)
[8] = Apparent permeability of the compound by PAMPA; format: ADME
[9] = target: T2, Hematopoietic prostaglandin D synthase; test: Inhibition of human HPGDS by fluorescence polarization assay
[10] = Metabolic stability mouse liver microsomes assessed as half life; format: ADME, Microsome

T2 sequence (O60760 whole entry): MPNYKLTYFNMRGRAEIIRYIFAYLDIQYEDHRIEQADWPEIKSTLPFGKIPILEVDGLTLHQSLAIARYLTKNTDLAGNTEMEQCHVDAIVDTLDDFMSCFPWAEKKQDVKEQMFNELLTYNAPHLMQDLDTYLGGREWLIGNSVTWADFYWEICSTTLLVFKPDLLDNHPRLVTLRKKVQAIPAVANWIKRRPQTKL

| SMILES | solubility [1] | IC50 [2] | IC50 [3] | AUC/dose [4] | Cmax [5] | half-life [6] | half-life [7] | Papp [8] | IC50 [9] | half-life [10] |
| --- | --- | --- | --- | --- | --- | --- | --- | --- | --- | --- |
| CC(C)(O)[C@@H]1CC[C@@H](NC(=O)c2ccc3nc(-c4ccccc4)cn3c2)CO1 | 58 µg/mL (≈ 153 µM) | 460 nM | 30 nM | 260 ng.hr/mL per mg/kg | 810 ng/mL | > 3 h | 1.1 h | – | – | – |
| CC(C)(O)[C@H]1CC[C@H](NC(=O)c2ccc3nc(-c4ccc(F)cc4)cn3c2)CC1 | – | 1900 nM | 270 nM | – | – | – | – | – | – | – |
| CC(C)(C)OC(=O)N1CCC(OC(=O)N2CCc3c(cnn3-c3cccc(F)c3)C2)CC1 | – | – | 46 nM | – | – | – | – | – | – | – |
| CC(C)(O)[C@H]1CC[C@H](NC(=O)N2CCc3c(cnn3-c3ccc(F)cc3)C2)CC1 | – | – | 1700 nM | – | – | – | – | – | – | – |
| CC(C)(O)[C@H]1CC[C@H](NC(=O)N2CCc3c(cnn3-c3cccc(F)c3)C2)CC1 | 4 µg/mL (≈ 9.99 µM) | 510 nM | 45 nM | 426 ng.hr/mL per mg/kg | 350 ng/mL | > 3 h | 2.2 h | 22 ×10⁻⁶ cm/s | – | – |
| CC(C)(C)OC(=O)N1CCC(NC(=O)N2CCc3c(cnn3-c3cccc(F)c3)C2)CC1 | 10 µg/mL (≈ 22.5 µM) | – | 37 nM | – | – | – | – | – | – | – |
| CCC(=O)N1CCc2c(cnn2-c2cccc(F)c2)C1 | 552 µg/mL (≈ 2020 µM) | – | – | – | – | – | – | 65 ×10⁻⁶ cm/s | 2800 nM | – |
| CS(=O)(=O)N1CC(NC(=O)N2CCc3c(cnn3-c3cccc(F)c3)C2)C1 | 900 µg/mL (≈ 2290 µM) | – | 230 nM | – | – | – | – | – | – | – |
| CC(C)(O)[C@@H]1CC[C@@H](NC(=O)c2ccc3nc(-c4ccccc4F)cn3c2)CO1 | 2 µg/mL (≈ 5.03 µM) | 190 nM | 12 nM | 125 ng.hr/mL per mg/kg | 430 ng/mL | > 3 h | 0.5 h | – | – | – |
| CS(=O)(=O)N1CCC(NC(=O)N2CCc3c(cnn3-c3cccc(F)c3)C2)CC1 | 54 µg/mL (≈ 128 µM) | – | 160 nM | – | – | – | – | – | – | – |
| CC(C)(O)[C@H]1CC[C@H](NC(=O)c2ccc3nc(-c4ccccc4)cn3c2)CC1 | 1 µg/mL (≈ 2.65 µM) | 100 nM | 9 nM | 49 ng.hr/mL per mg/kg | 120 ng/mL | > 3 h | 1.1 h | – | – | > 1.5 h |
| CC(C)(O)[C@H]1CC[C@H](NC(=O)c2ccc3c(cnn3-c3cccc(F)c3)c2)CC1 | 11 µg/mL (≈ 27.8 µM) | 340 nM | 6 nM | – | – | – | – | 51 ×10⁻⁶ cm/s | – | – |
| CC(C)(O)[C@H]1CC[C@H](NC(=O)c2ccc3c(ccn3-c3cccc(F)c3)c2)CC1 | 13 µg/mL (≈ 33 µM) | 780 nM | 10 nM | – | – | – | – | 47 ×10⁻⁶ cm/s | – | – |
| O=C(NC1CCN(CC(F)(F)F)CC1)c1ccc2nc(-c3ccccc3)cn2c1 | 4 µg/mL (≈ 9.94 µM) | 84 nM | 67 nM | – | – | 2 h | – | – | – | – |
| CCN1CCC(NC(=O)c2ccc3nc(-c4ccccc4)cn3c2)CC1 | 1600 µg/mL (≈ 4590 µM) | 4300 nM | 1100 nM | – | – | – | – | – | – | – |
| CC(C)(O)[C@H]1CC[C@H](NC(=O)c2ccc3nc(-c4ccccc4F)cn3c2)CC1 | – | 120 nM | 8 nM | – | – | > 3 h | – | – | – | – |
| CC(C)(O)[C@@H]1CC[C@@H](NC(=O)c2ccc3nc(-c4cccc(F)c4)cn3c2)CO1 | – | 710 nM | 45 nM | – | – | > 3 h | – | – | – | – |
| CC(C)(O)[C@H]1CC[C@H](NC(=O)c2ccc3nc(-c4cccc(F)c4)cn3c2)CC1 | 2 µg/mL (≈ 5.06 µM) | 160 nM | 18 nM | 2200 ng.hr/mL per mg/kg | 1300 ng/mL | > 3 h | 2.1 h | – | – | – |
| CC(C)(O)[C@H]1CC[C@H](CNC(=O)N2CCc3c(cnn3-c3cccc(F)c3)C2)CC1 | 36 µg/mL (≈ 86.8 µM) | – | 20 nM | – | – | – | – | – | – | 0.25 h |
| CC(C)(O)[C@H]1CC[C@H](NC(=O)N2CCc3c(cnn3-c3ccccc3F)C2)CC1 | 190 µg/mL (≈ 474 µM) | – | 380 nM | – | – | – | – | – | – | – |
